Patent US12466821B2 (Novartis AG, priority 2018, dated 2025)
Read-outs that look alike come from different tables or passages of the source.

What was measured:
[1] = test system: Luciferase-encoding HCMV, AD169 strain; test: CMV Luciferase assay (cellular herpesvirus replication); type: cell-based
How it was run: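 Neonatal human dermal fibroblasts were pretreated 1 h with compound (final 0.0159–50 μM or 0.00318–10 μM, 0.5% DMSO), then infected at MOI 1 with AD169 carrying pp28-promoter luciferase. After 72 h at 37 °C, Renilla-Glo luminescence normalized to no-virus and virus-only controls; EC50 by 4-parameter logistic model.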

[2] = target: human CMV DNA polymerase UL54 (Human cytomegalovirus (strain AD169) (HHV-5) (Human herpesvirus 5), UniProt P08546); test: CMV polymerase biochemical assay (molecular beacon-based)
How it was run: (§1)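 Readout was beacon fluorescence (ex 480, em 535 nm), used to derive IC50. Each dNTP was at 1.25 uM, with 200 nM primer and 100 nM beacon, after a 30-min RT inhibitor preincubation. Enzyme was 625 pM for HSV UL30 (20 min RT reaction) or 100 pM for CMV UL54 (60 min RT), both sf9-expressed MBP fusions, in pH 7.5 Tris buffer with MgCl2.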

[3] = target: human HSV DNA polymerase UL30 (Human herpesvirus 1 (strain 17) (HHV-1) (Human herpes simplex virus 1), UniProt P04293); test: HSV polymerase biochemical assay (molecular beacon-based)
How it was run: as §1

[4] = Human betaherpesvirus 5, AD169, read-out: CMV-Luc Cellular EC50

CCS(=O)(=O)C1(CN2CCn3c(ccc(C(=O)NCc4ccc(C#N)cc4)c3=O)C2=O)CC1 [Example 35]
EC50 [1, 4]: 0.0544 µM
IC50 [2]: 0.0026 µM
IC50 [3]: 0.0689 µM

CCS(=O)(=O)C1(CN2CCn3c(ccc(C(=O)NCc4ccc(Cl)cc4)c3=O)C2=O)CC1 [Example 36]
EC50 [1, 4]: 0.0249 µM
IC50 [2]: 0.0007 µM
IC50 [3]: 0.0423 µM

CS(=O)(=O)C1(CN2CCn3c(ccc(C(=O)NCc4ccc(Br)cc4)c3=O)C2=O)CC1 [Example 37]
EC50 [1, 4]: 0.0623 µM
IC50 [2]: 0.0013 µM
IC50 [3]: 0.111 µM

CS(=O)(=O)C1(CN2CCn3c(ccc(C(=O)NCc4ccc(C#N)cc4F)c3=O)C2=O)CC1 [Example 38]
EC50 [1, 4]: 0.868 µM
IC50 [2]: 0.012 µM
IC50 [3]: 0.63 µM

CS(=O)(=O)C1(CN2CCn3c(ccc(C(=O)NCc4ccc(C#N)c(F)c4)c3=O)C2=O)CC1 [Example 39]
EC50 [1, 4]: 0.102 µM
IC50 [2]: 0.0035 µM
IC50 [3]: 0.105 µM

CS(=O)(=O)C1(CN2CCn3c(ccc(C(=O)NCc4ncc(Cl)cn4)c3=O)C2=O)CC1 [Example 40]
EC50 [1, 4]: 10 µM
IC50 [2]: 0.48 µM
IC50 [3]: 28.3 µM

CS(=O)(=O)C1(CN2CCn3c(ccc(C(=O)NCc4ccc(Cl)c(F)c4)c3=O)C2=O)CC1 [Example 41]
EC50 [1, 4]: 0.0429 µM
IC50 [2]: 0.0028 µM
IC50 [3]: 0.123 µM

CS(=O)(=O)C1(CN2CCn3c(ccc(C(=O)NCC4CCC5(CC4)CC5)c3=O)C2=O)CC1 [Example 42]
EC50 [1, 4]: 7.49 µM
IC50 [2]: 0.0432 µM
IC50 [3]: 12.8 µM

CS(=O)(=O)C1(CN2CCn3c(ccc(C(=O)NCC4CCC(F)(F)CC4)c3=O)C2=O)CC1 [Example 43]
EC50 [1, 4]: 6.42 µM
IC50 [2]: 0.0625 µM
IC50 [3]: 7.86 µM

C[C@H](NC(=O)c1ccc2n(c1=O)CCN(CC1(S(C)(=O)=O)CC1)C2=O)c1ccc(Cl)cc1 [Example 44]
EC50 [1, 4]: 10 µM
IC50 [2]: 0.763 µM
IC50 [3]: 62.9 µM

C[C@@H](NC(=O)c1ccc2n(c1=O)CCN(CC1(S(C)(=O)=O)CC1)C2=O)c1ccc(Cl)cc1 [Example 45]
EC50 [1, 4]: 10 µM
IC50 [2]: 0.458 µM
IC50 [3]: 130 µM

CS(=O)(=O)C1(CN2CCn3c(ccc(C(=O)NCc4ccc(C#N)cc4)c3=O)C2=O)CC1 [Example 46]
EC50 [1, 4]: 0.229 µM
IC50 [2]: 0.006 µM
IC50 [3]: 0.127 µM

CS(=O)(=O)C1(CN2CCn3c(ccc(C(=O)NCc4ccc(F)cc4)c3=O)C2=O)CC1 [Example 47]
EC50 [1, 4]: 0.783 µM
IC50 [2]: 0.02 µM
IC50 [3]: 0.393 µM

CS(=O)(=O)C1(CN2CCn3c(ccc(C(=O)NCc4ccc(Cl)cc4)c3=O)C2=O)CC1 [Example 48]
EC50 [1, 4]: 0.0333 µM
IC50 [2]: 0.003 µM
IC50 [3]: 0.0513 µM

CS(=O)(=O)C1(CN2CCn3c(ccc(C(=O)NCc4ccc(Cl)cc4)c3=O)C2=O)CCC1 [Example 49]
EC50 ([1]; read-out: CMV-Luc Cellular EC50): 2.79 µM
IC50 [2]: 0.0418 µM
IC50 [3]: 2.52 µM

O=C(NCc1ccc(Cl)cc1)c1ccc2n(c1=O)CCN(CCC1CCCS1(=O)=O)C2=O (stereo not drawn) [Example 50-1, N-(4-chlorobenzyl)-2-(2-(1,1-dioxidotetrahydrothiophen-2-yl)ethyl)-1,6-dioxo-2,3,4,6-tetrahydro-1H-pyrido[1,2-a]pyrazine-7-carboxamide]
EC50 [1, 4]: 0.306 µM
IC50 [2]: 0.0356 µM
IC50 [3]: 0.188 µM

O=C(NCc1ccc(Cl)nc1)c1ccc2n(c1=O)CCN(CC1(S(=O)(=O)C3(CO)CC3)CC1)C2=O [Example 50-2]
EC50 [1, 4]: 0.121 µM
IC50 [2]: 0.0064 µM
IC50 [3]: 0.0728 µM

CS(=O)(=O)CCCN1CCn2c(ccc(C(=O)NCc3ccc(Cl)cc3)c2=O)C1=O [Example 52]
EC50 [1, 4]: 2.95 µM
IC50 [2]: 0.163 µM
IC50 [3]: 0.791 µM

O=C(NCc1ccc(Cl)cc1)c1ccc2n(c1=O)CCN(C1CCS(=O)(=O)C1)C2=O (stereo not drawn) [Example 53-1]
EC50 [1, 4]: 11.2 µM
IC50 [2]: 0.729 µM
IC50 [3]: 4.44 µM

CCS(=O)(=O)CCN1CCn2c(ccc(C(=O)NCc3ccc(Cl)cc3)c2=O)C1=O [Example 53]
EC50 [1, 4]: 1.46 µM
IC50 [2]: 0.149 µM
IC50 [3]: 0.365 µM

CN(CCN1CCn2c(ccc(C(=O)NCc3ccc(Cl)cc3)c2=O)C1=O)C(=O)OC(C)(C)C [Example 54, tert-butyl (2-(7-((4-chlorobenzyl)carbamoyl)-1,6-dioxo-3,4-dihydro-1H-pyrido[1,2-a]pyrazin-2(6H)-yl)ethyl)(methyl)carbamate]
EC50 [1, 4]: 4.34 µM
IC50 [2]: 0.292 µM
IC50 [3]: 1.93 µM

COCCN1CCn2c(ccc(C(=O)NCc3ccc(Cl)cc3)c2=O)C1=O [Example 55]
EC50 [1, 4]: 6.71 µM
IC50 [2]: 0.708 µM
IC50 [3]: 11.5 µM

O=C(NCc1ccc(Cl)cc1)c1ccc2n(c1=O)CCN(CCN1CCCC1=O)C2=O [Example 56]
EC50 [1, 4]: 3.83 µM
IC50 [2]: 0.312 µM
IC50 [3]: 4.76 µM

CC1(CN2CCn3c(ccc(C(=O)NCc4ccc(Cl)cc4)c3=O)C2=O)COC1 [Example 57-1]
EC50 [1, 4]: 29.2 µM
IC50 [2]: 2.66 µM
IC50 [3]: 31.3 µM

O=C(NCc1ccc(Cl)cc1)c1ccc2n(c1=O)CCN(CCN1CCCCC1=O)C2=O [Example 57]
EC50 [1, 4]: 7.26 µM
IC50 [2]: 0.374 µM
IC50 [3]: 6.13 µM

CN(CCN1CCn2c(ccc(C(=O)NCc3ccc(Cl)cc3)c2=O)C1=O)S(C)(=O)=O [Example 58, N-(4-chlorobenzyl)-2-(2-(N-methylmethylsulfonamido)ethyl)-1,6-dioxo-2,3,4,6-tetrahydro-1H-pyrido[1,2-a]pyrazine-7-carboxamide]
EC50 [1, 4]: 0.883 µM
IC50 [2]: 0.0756 µM
IC50 [3]: 0.846 µM

CCS(=O)(=O)N(C)CCN1CCn2c(ccc(C(=O)NCc3ccc(Cl)cc3)c2=O)C1=O [Example 59]
EC50 [1, 4]: 1.64 µM
IC50 [2]: 0.138 µM
IC50 [3]: 1.48 µM

CN(CCN1CCn2c(ccc(C(=O)NCc3ccc(Cl)cc3)c2=O)C1=O)S(=O)(=O)C1CC1 [Example 60]
EC50 [1, 4]: 1.25 µM
IC50 [2]: 0.124 µM
IC50 [3]: 0.888 µM

COC(=O)N(C)CCN1CCn2c(ccc(C(=O)NCc3ccc(Cl)cc3)c2=O)C1=O [Example 61-1]
EC50 [1, 4]: 5 µM
IC50 [2]: 0.74 µM
IC50 [3]: 10.8 µM

CC(=O)N(C)CCN1CCn2c(ccc(C(=O)NCc3ccc(Cl)cc3)c2=O)C1=O [Example 61]
EC50 [1, 4]: 6.34 µM
IC50 [2]: 0.364 µM
IC50 [3]: 5.56 µM

CS(=O)(=O)NCCN1CCn2c(ccc(C(=O)NCc3ccc(Cl)cc3)c2=O)C1=O [Example 62, N-(4-chlorobenzyl)-2-(2-(methylsulfonamido)ethyl)-1,6-dioxo-2,3,4,6-tetrahydro-1H-pyrido[1,2-a]pyrazine-7-carboxamide]
EC50 [1, 4]: 19.9 µM
IC50 [2]: 0.657 µM
IC50 [3]: 4.3 µM

CS(=O)(=O)N1CCC[C@H]1CN1CCn2c(ccc(C(=O)NCc3ccc(Cl)cc3)c2=O)C1=O [Example 63-1]
EC50 [1, 4]: 42.7 µM
IC50 [2]: 1.4 µM
IC50 [3]: 23.4 µM

CS(=O)(=O)N1CCC[C@@H]1CN1CCn2c(ccc(C(=O)NCc3ccc(Cl)cc3)c2=O)C1=O [Example 63]
EC50 [1, 4]: 12.3 µM
IC50 [2]: 0.42 µM
IC50 [3]: 19.8 µM

O=C(NCc1ccc(Cl)cc1)c1ccc2n(c1=O)CCN(CCN1CCCS1(=O)=O)C2=O [Example 64, N-(4-chlorobenzyl)-2-(2-(1,1-dioxidoisothiazolidin-2-yl)ethyl)-1,6-dioxo-2,3,4,6-tetrahydro-1H-pyrido[1,2-a]pyrazine-7-carboxamide]
EC50 [1, 4]: 0.0961 µM
IC50 [2]: 0.0336 µM
IC50 [3]: 0.181 µM

CS(=O)(=O)N1CC(CN2CCn3c(ccc(C(=O)NCc4ccc(Cl)cc4)c3=O)C2=O)C1 [Example 65]
EC50 [1, 4]: 15.1 µM
IC50 [2]: 0.614 µM
IC50 [3]: 11.5 µM

Cc1cc(C(=O)NCc2ccc(Cl)cc2)c(=O)n2c1C(=O)N(CCN1CCCS1(=O)=O)CC2 [Example 66-1]
EC50 [1, 4]: 0.417 µM
IC50 [2]: 0.0375 µM
IC50 [3]: 0.125 µM

CS(=O)(=O)N1CCC1CN1CCn2c(ccc(C(=O)NCc3ccc(Cl)cc3)c2=O)C1=O (stereo not drawn) [Example 66]
EC50 [1, 4]: 1.52 µM
IC50 [2]: 0.112 µM
IC50 [3]: 1.18 µM

C[S+]([O-])C1(CN2CCn3c(ccc(C(=O)NCc4ccc(Cl)cc4)c3=O)C2=O)CC1 (stereo not drawn) [Example 67-1, N-(4-chlorobenzyl)-2-((1-(methylsulfinyl)cyclopropyl)methyl)-1,6-dioxo-2,3,4,6-tetrahydro-1H-pyrido[1,2-a]pyrazine-7-carboxamide]
EC50 [1, 4]: 0.868 µM
IC50 [2]: 0.0573 µM
IC50 [3]: 1.78 µM

C[S+]([O-])C1(CN2CCn3c(ccc(C(=O)NCc4ccc(C#N)cc4)c3=O)C2=O)CC1 (stereo not drawn) [Example 68-1, N-(4-cyanobenzyl)-2-((1-(methylsulfinyl)cyclopropyl)methyl)-1,6-dioxo-2,3,4,6-tetrahydro-1H-pyrido[1,2-a]pyrazine-7-carboxamide]
EC50 [1, 4]: 3.17 µM
IC50 [2]: 0.146 µM
IC50 [3]: 3.8 µM

C[S@@+]([O-])C1(CN2CCn3c(ccc(C(=O)NCc4ccc(C#N)cc4)c3=O)C2=O)CC1 [Example 68-2]
EC50 [1, 4]: 2.86 µM
IC50 [2]: 0.0622 µM
IC50 [3]: 2.73 µM

C[S@+]([O-])C1(CN2CCn3c(ccc(C(=O)NCc4ccc(C#N)cc4)c3=O)C2=O)CC1 [Example 68-3]
EC50 [1, 4]: 7.56 µM
IC50 [2]: 0.198 µM
IC50 [3]: 9.19 µM

COCC1(CN2CCn3c(ccc(C(=O)NCc4ccc(Cl)cc4)c3=O)C2=O)CC1 [Example 69, N-(4-chlorobenzyl)-2-((1-(methoxymethyl)cyclopropyl)methyl)-1,6-dioxo-2,3,4,6-tetrahydro-1H-pyrido[1,2-a]pyrazine-7-carboxamide]
EC50 [1, 4]: 10 µM
IC50 [2]: 0.656 µM
IC50 [3]: 5.25 µM
